# Test results from US11326191B2 (LYGOS, INC., priority 2016, dated 2022).
# Columns and labels:
# [1] = Malonic acid solubility in water at various temperatures; assay type: physicochemical; details: 65° C.
# [2] = Thermal stability of malonic acid (decarboxylation to acetic acid); assay type: physicochemical
smiles,measurement,setting,value
"O=C(O)CC(=O)O [malonic acid, propanedioic acid]",solubility limit of malonic acid,[1],76 % wt/wt
same,temperature at which malonic acid decarboxylates to form acetic acid,[2],approximately 80 °C
same,temperature at which malonic acid begins to rapidly decompose,[2]; under acidic conditions,about 80 °C
